PMC5563081, “Modulating Protein-Protein Interactions of the Mitotic Polo-like Kinases to Target Mutant KRAS” (Cell Chemical Biology, 2017)
≈ marks a conversion by molar mass, not a printed value. Where “and” joins values, the source holds several entries; their conditions need not be identical. Equal entries are not always repeated. Where two headings read alike, the source gives them in different places.

Tests used:
[1] = Stability in human hepatocytes; type: in vitro ADME
[2] = test system: murine pancreatic organoids KRAS WT p53 MUT; assay: Viability of pancreatic organoids (CellTitre Glo 3D), KRAS WT; type: cell-based; conditions: Mus musculus, read-out: Mean GI50
Method: Organoid cultures were prepared from the pancreas of LSL-Trp53^R172H/+, Pdx-1-Cre (for Kras WT organoids) or LSL-Trp53^R172H/+, LSL-Kras^G12D/+, Pdx-1-Cre (for Kras^G12D organoids KPC3760 and KPC26684) strains ([Hingorani et al., 2005]). Pancreatic ducts were manually picked after tissue mincing and overnight enzymatic digestion with 0.012% (w/v) collagenase XI (Sigma) and 0.012% (w/v) dispase (GIBCO) in DMEM media containing 1% FBS (GIBCO), before seeding in growth-factor-reduced (GFR) Matrigel (BD) ([Boj et al., 2015]).
Pancreatic organoids were extracted and cultured as detailed above ([Boj et al., 2015]). In brief, pancreatic organoids were seeded at 600 cells per well in a 96 well plate and allowed to grow for 7 days with media replenishment on the 3rd day. Full-grown organoids were then treated with compounds for 72h and viability determined using CellTitre Glo 3D assay (Promega). For viability assays with c-MET siRNA, cells were reverse transfected in a 6 cm dish using Dharmafect 1 (GE Dharmacon) per manufacturer’s instructions. On the following day, cells were trypsinised and plated onto 96 well plates or 6 well plates. The 96 well plates were treated with a dose range of compounds or DMSO, and viability was determined via SRB colorimetric assay. Cells in the 6 well plates were collected at the end of experiment to corroborate knockdown of c-MET by Western blotting.

Solubility in 5% DMSO = type: physicochemical; conditions: aqueous with cosolvent or surfactant or cyclodextrin, read-out: soluble at up to
PBD domain of human PLK2 = molecular target: T1, PBD domain of human PLK2 (Homo sapiens, UniProt Q9NYY3); assay: Fluorescence polarisation (FP) assay, PLK2 PBD; type: binding
T1 construct: For FP assays using PLK2 PBD (aa356-681), the same procedure was applied; GST (N, cleaved yes); made in house; host or cells: E. coli C41
T1 sequence (Q9NYY3 356-681): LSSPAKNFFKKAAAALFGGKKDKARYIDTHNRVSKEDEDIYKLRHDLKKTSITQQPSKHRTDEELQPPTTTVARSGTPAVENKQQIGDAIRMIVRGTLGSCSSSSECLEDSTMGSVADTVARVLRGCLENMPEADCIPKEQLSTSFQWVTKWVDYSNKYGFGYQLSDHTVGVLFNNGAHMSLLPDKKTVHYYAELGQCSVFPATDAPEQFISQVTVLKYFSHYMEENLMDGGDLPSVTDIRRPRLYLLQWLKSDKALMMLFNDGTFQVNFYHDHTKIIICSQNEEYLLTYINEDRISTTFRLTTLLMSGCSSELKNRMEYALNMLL
Method: Final concentrations of assay components used in binding assays were as follows: TAMRA-labelled consensus PLK1 PBD binding phosphopeptide, 5-TAMRA-MAGPMQS(pThreonine)PLMGAKK-acid 10nM; PLK1 PBD (aa345-603) 84nM (2.5ng/μl). Assays were carried out in PBS (pH 7.4) plus 0.03% tween. DMSO controls were run alongside all experimental compounds and % inhibition normalised to these controls. Compounds were titrated 2 fold from a top concentration of 250μM giving a maximum final concentration of DMSO in the assay of 0.25%; however the assay can tolerate DMSO up to 5%. Compound and PBD protein were incubated together at 22°C for 1 hour prior to addition of the TAMRA labelled binding phosphopeptide. The total assay volume per well was 45μl. All experiments were performed in NBS black 384-well microtiter plates (Corning). Fluorescence Polarisation (FP) was read using a BMG PheraStar plate reader with a 540/590/590nm FP module and unbound 10nm TAMRA-labelled peptide set to a FP value of 35mP.
For FP assays using PLK2 PBD (aa356-681), the same procedure was applied except that TAMRA-MAGPMQTS(pThreonine)PKNGAKK was used as the consensus binding phosphopeptide.

[3] = molecular target: T2, NanoLuc-PLK3 fusion protein (Homo sapiens, UniProt Q9H4B4); assay: NanoLuc thermal shift assay; type: cell-based; conditions: compound at 100 μM
T2 construct: NanoLuc fused to the N-termini of full-length human PLK1, PLK2, PLK3, PLK4 or p38α MAPK; expressed in transfected cells; host or cells: HeLa, transient, digitonin-permeabilised
T2 sequence (Q9H4B4 whole entry, the tested form may be a part): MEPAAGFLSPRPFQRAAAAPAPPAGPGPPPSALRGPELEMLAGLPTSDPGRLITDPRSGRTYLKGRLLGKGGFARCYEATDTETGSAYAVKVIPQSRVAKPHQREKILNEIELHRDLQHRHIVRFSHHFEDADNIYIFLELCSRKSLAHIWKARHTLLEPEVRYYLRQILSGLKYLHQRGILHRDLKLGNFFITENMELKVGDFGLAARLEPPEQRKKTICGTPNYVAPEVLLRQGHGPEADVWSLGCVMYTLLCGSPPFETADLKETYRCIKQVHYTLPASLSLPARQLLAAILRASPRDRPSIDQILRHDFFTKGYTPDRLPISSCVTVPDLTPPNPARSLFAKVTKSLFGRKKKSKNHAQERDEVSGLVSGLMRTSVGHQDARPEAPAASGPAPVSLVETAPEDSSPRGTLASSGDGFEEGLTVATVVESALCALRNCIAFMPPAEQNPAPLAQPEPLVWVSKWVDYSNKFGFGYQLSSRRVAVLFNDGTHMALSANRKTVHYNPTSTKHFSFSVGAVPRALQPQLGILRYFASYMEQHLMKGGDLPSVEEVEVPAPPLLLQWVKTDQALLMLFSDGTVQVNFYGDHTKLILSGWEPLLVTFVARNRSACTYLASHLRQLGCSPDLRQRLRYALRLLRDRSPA
Method: (§1) HeLa cells were transfected with plasmids encoding NanoLuc fused to the N-termini of full-length human PLK1, PLK2, PLK3, PLK4 or p38α MAPK. Twenty-four h after transfection, the thermal stability of the fusion proteins was tested using a modified version of the assay protocol supplied by Promega. Briefly, cells were harvested by tyrpsinisation and centrifugation, counted, and resuspended to 200,000 cells/ml in 3mls of serum-free OptiMEM media. Cells were then permeabilised using with 50ug/ml digitonin in DMSO for 5 min and incubated with test compounds at 100uM, plus protease inhibitor cocktail (Promega G6521), in a final concentration of 5% DMSO for 1 h at 37°C. After incubation, 100 μl/well of cells were aliquoted into a 96-well, thin-walled PCR plate and then heated for 3 minutes using a pre-warmed MJ Tetrad DNA Engine set to run a temperature gradient of 42 to 66°C. The plates were then cooled to room temperature for 10 min, and then 80μl of each sample was transferred to a white-walled 96-well Nunc plate before NanoBRET™ NanoGlo Substrate diluted in Opti-MEM was added. NanoLuc enzyme activity was read out within 10 min using a BMG Clariostar plate reader.

[4] = molecular target: T3, NanoLuc-PLK2 fusion protein (Homo sapiens, UniProt Q9NYY3); assay: NanoLuc thermal shift assay; type: cell-based; conditions: compound at 100 μM
T3 construct: NanoLuc fused to the N-termini of full-length human PLK1, PLK2, PLK3, PLK4 or p38α MAPK; expressed in transfected cells; host or cells: HeLa, transient, digitonin-permeabilised
T3 sequence (Q9NYY3 whole entry, the tested form may be a part): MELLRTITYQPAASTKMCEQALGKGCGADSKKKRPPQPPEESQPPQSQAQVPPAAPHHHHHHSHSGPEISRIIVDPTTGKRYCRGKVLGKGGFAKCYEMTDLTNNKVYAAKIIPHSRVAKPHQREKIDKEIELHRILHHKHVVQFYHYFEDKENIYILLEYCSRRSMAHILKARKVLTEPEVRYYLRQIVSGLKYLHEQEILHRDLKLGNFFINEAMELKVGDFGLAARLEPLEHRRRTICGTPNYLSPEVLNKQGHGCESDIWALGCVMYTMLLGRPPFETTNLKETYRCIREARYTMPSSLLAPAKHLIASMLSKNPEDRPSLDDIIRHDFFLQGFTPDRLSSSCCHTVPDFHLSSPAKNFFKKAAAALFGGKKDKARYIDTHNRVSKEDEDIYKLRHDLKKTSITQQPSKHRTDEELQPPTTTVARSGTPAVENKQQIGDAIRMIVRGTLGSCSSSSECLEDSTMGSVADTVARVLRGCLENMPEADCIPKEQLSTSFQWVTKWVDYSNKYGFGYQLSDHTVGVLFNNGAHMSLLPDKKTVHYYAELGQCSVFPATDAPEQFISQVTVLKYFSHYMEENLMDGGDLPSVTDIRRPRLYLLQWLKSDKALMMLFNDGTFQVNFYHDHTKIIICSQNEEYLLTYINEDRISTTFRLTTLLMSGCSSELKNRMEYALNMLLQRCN
Method: as §1

HeLa = assay: GI50 for cell killing, HeLa; type: cell-based; conditions: Homo sapiens
parental HeLa cells = assay: Live-cell imaging of cell fate, parental HeLa; type: cell-based, human; conditions: wild-type HeLa
Method: (§2) Five x10^4 cells were seeded on each well of 4-well coverglass Lab-Tek chambers in a volume of 800 μl. HeLa-G12D cells were induced with Doxycycline (Dox) 24h before seeding and kept in Dox for the rest of the experiment.
(§3) For live cell imaging analysis image sequences were viewed using ImageJ software and cell fate was analysed manually. Time spent in mitosis for different groups was compared with a Kruskal-Wallis test and Dunn's multiple comparison correction.

HeLa-KRAS G12D = assay: GI50 for cell killing, HeLa-KRAS G12D; type: cell-based; conditions: Homo sapiens
Method: as §2

[5] = test system: HeLa cells expressing KRAS G12D; assay: Live-cell imaging of cell fate, HeLa KRAS G12D; type: cell-based, human; conditions: Poloppin at GI50 dose, 3% in DMSO controls
Method: as §2, §3

SMILES | half-life [1] [h] | hepatocyte CLint [1] [µL/min/1e6 cells] | GI50 ([2]; organoids KRAS WT p53 MUT, n=2) [µM] | solubility (Solubility in 5% DMSO) [µM] | IC50 (PBD domain of human PLK2; read-out: IC50, binding of TAMRA-labelled phosphopeptide to PLK2 PBD) [µM] | thermal stability of NanoLuc-PLK3 [3] | thermal stability of NanoLuc-PLK2 [4] | GI50 [2] [µM] | GI50 (HeLa) [µM] | average time in mitosis (parental HeLa cells; Poloppin at GI50 dose (10μM), 60 min without) [min] | frequency of aneuploid divisions (parental HeLa cells; Poloppin at GI50 dose, 4% after DMSO) [%] | GI50 (HeLa-KRAS G12D) [µM] | selectivity for PLK1-PBD over PLK2-PBD (PBD domain of human PLK2) [fold] | IC50 (PBD domain of human PLK2; IC50, binding of TAMRA-labelled phosphopeptide to PLK2 PBD) | frequency of death in mitosis [5] [%]
CN(C)CCNC(=O)c1ccc(-c2ccc(-c3ccc(Cl)cc3)n2-c2ccccc2C(F)(F)F)cc1 [Poloppin-II] | 2.27 | 10 | 102 | ~100 (≈ 51.2 µg/mL) | 105 |  |  |  |  |  |  |  |  |  | 
O=C(O)CCc1ccc(-c2ccc(Br)cc2)n1-c1ccccc1C(F)(F)F [Poloppin] |  |  |  | ≤ 1000 |  | increases the thermal stability | increases the thermal stability | 119 | 10 | 100 | 38 | 5 | ~3 | 88.3 µM and 88 µM | 36
